According to patent US9957230B2, “Synergistic compositions” (Cadila Healthcare Limited, priority 2013, dated 2018):

What was measured:
Format in all cases: in vivo
db/db mice [1] = assay: Oral glucose tolerance test in db/db mice (studies I and II); details: Table 10; OGTT day 14, fasting, glucose load 2 gm/kg; Compound (Ia) 0.1 mg/kg, Sitagliptin 3 mg/kg p.o.
Excerpt: 8. […] 8. The treatment was given oral gavages once daily for 14 days.
The OGTT procedure followed is as given below—

db/db mice [2] = assay: Antidiabetic activity in db/db mice (studies I and II): non-fasting serum glucose; details: Compound (Ia) 0.1 mg/kg
Excerpt: The in-vivo efficacy for antidiabetic activity was done for (I) and (II) individually with db/db mice of 13-14 weeks of age.
8. […] 8. The treatment was given oral gavages once daily for 14 days. […]

db/db mice [3] = assay: Oral glucose tolerance test in db/db mice (studies VII and VIII); details: Compound Ia 0.1 mg/kg, Glimepiride 2 mg/kg p.o.; for % improvement in AUC glucose vs control: Table 31 and text, OGTT after 7 days of treatment
Excerpt: (§1) In this experiment, 49 db/db mice of 12-16 week were divided into 7 groups and as per their day 0 serum glucose levels. […] Detail treatments and routes of administrations were mentioned in Table no. 27. The treatment was given once daily for 7 days.
(§2) The blood was collected by retro-orbital sinus puncture method under light ether anesthesia on day 0 (pretreatment) and on day 6 (one hour after dose administration) for non-fasting glucose analysis and oral glucose tolerance test (OGTT) was performed on day 7 of the treatment in fasting condition. After blood collection serum was separated and analyzed glucose analysis using Spectra max and commercial diagnostic kits. The OGTT procedure followed is as given below—
Oral Glucose Tolerance Test (OGTT): One day before OGTT all animals were kept on overnight fasting and on the day of OGTT, day 7 of the treatment each animal was dosed with a single dose of vehicle/test compounds administered orally and 60-min post dosing blood was collected (0 min) and glucose load (2 gm/kg/10 ml) administered per orally. Blood was then collected at time points corresponding to 30, 60 and 120 min after glucose load administration. Serum was separated and analyzed for glucose using Spectra max and commercial diagnostic kits.
(§3) The calculation for antidiabetic activity i.e. effect on serum glucose and improvement in glucose Area Under Curve (AUC) was calculated using the excel sheet and Graph Pad Prism software. The day-0 and day-6 glucose values of vehicle control and treatment were considered for calculating the effect on serum glucose. The effect on glucose AUC was calculated using the OGTT glucose levels at different time points and the improvement in glucose AUC were the reduction in glucose AUC after the treatment during OGTT.

db/db mice [4] = assay: Antidiabetic activity with Exenatide or Glimepiride in db/db mice (studies VII and VIII): non-fasting serum glucose; details: Compound Ia 0.1 mg/kg
Excerpt: The in-vivo efficacy for antidiabetic activity was done in male and female db/db mice of 12-16 weeks of age. Generally obese and diabetic animals are insulin resistant and have abnormalities in glucose and lipid metabolism. The development of diabetes and beta cell dysfunction in these animal models closely parallels the pathophysiology of the disease condition in humans. […] They progressively develop into insulinopenia with age, a feature commonly observed in last stage of type-2 diabetes, when blood sugar levels are insufficiently controlled. Therefore, this genetic model proves to be suitable for predicting the likely therapeutic benefit of novel euglycemic agents in human type-2 diabetes.
as §1, §2, §3

Compound	AUC Glucose (db/db mice [1])	Serum Glucose (mg/dl) Day 0 (db/db mice [2]; Table 9, Day 0 (pretreatment), female db/db mice, Sitagliptin 3 mg/kg p.o. once daily)	Serum Glucose (mg/dl) Day 12 (db/db mice [2]; Table 9, Day 12, non-fasting, female db/db mice, Sitagliptin 3 mg/kg p.o. once daily)	% Change Vs control (db/db mice [2]; Table 9, serum glucose day 12 vs vehicle control, Sitagliptin 3 mg/kg p.o. once daily)	% Change Day 12 vs Day 0 (db/db mice [2]; Table 9, serum glucose, Sitagliptin 3 mg/kg p.o. once daily)	reduction in serum glucose (db/db mice [2]; female db/db mice, Sitagliptin 3 mg/kg, Metformin 150 mg/kg)	AUC Glucose (db/db mice [3]; Table 31, OGTT day 7, fasting, glucose load 2 gm/kg)	% improvement in AUC glucose vs control (db/db mice [3])	% improvement in AUC glucose vs control (db/db mice [3]; listed as glimepiride)	Serum Glucose (mg/dl) Day 0 (db/db mice [4]; Table 30, Day 0 (pretreatment), male and female db/db mice, Glimepiride 2 mg/kg p.o. once daily)	Serum Glucose (mg/dl) Day 6 (db/db mice [4]; Table 30, Day 6, one hour after dose, non-fasting, Glimepiride 2 mg/kg p.o. once daily)	% Change Day 6 vs Day 0 (db/db mice [4]; Table 30, serum glucose, Glimepiride 2 mg/kg p.o.)	% Change Vs control (db/db mice [4]; Table 30 and text, serum glucose day 6 vs vehicle control, Glimepiride 2 mg/kg p.o.)
N[C@@H](CC(=O)N1CCn2c(nnc2C(F)(F)F)C1)Cc1cc(F)c(F)cc1F [Sitagliptin, reference compound]	64655.9 ± 6300.6 mg·min/dL	407.9 ± 34.5 mg/dL	485.3 ± 50.5 mg/dL	18.5 ± 5.0%	18.3 ± 5.0%	does not show any reduction rather it has shown slight increase in serum glucose							
CCC1=C(C)CN(C(=O)NCCc2ccc(S(=O)(=O)NC(=O)N[C@H]3CC[C@H](C)CC3)cc2)C1=O [Glimepiride, reference compound]							62529.0 mg·min/dL	−2.6%	does not any improvement	402.0 mg/dL	506.7 mg/dL	26.9%	10.1%
